Assay results as given in patent US8642801B2 (BHI Limited Partnership, priority 2003, dated 2014).
Counter-ions that a name gives are not always drawn.

target: T1, IAPP (Homo sapiens, UniProt P10997); experiment: MS (electrospray mass spectrometry) binding assay for IAPP; details: Table 3C; 20 μM Aβ peptide, 100 μM compound (so in the source)
T1 construct: which is a 37 amino acid peptide, derived from a larger precursor peptide, called pro-IAPP
T1 sequence (P10997 34-70 limits assumed): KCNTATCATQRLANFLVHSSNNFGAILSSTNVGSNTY
Source text: The ability of a therapeutic compound of the invention to inhibit an interaction between an amyloidogenic protein and a glycoprotein or proteoglycan constituent of a basement membrane can be assessed by an in vitro binding assay, such as that described in U.S. Pat. No. 5,164,295, the contents of which are hereby incorporated by reference. Alternatively, the ability of a compound to bind to an amyloidogenic protein or to inhibit the binding of a basement membrane constituent (e.g., HSPG) to an amyloidogenic protein (e.g., Aβ) can be measured using a mass spectrometry assay where soluble protein, e.g., Aβ, IAPP, β2M is incubated with the compound. A compound which binds to, e.g., Aβ, will induce a change in the mass spectrum of the protein. Exemplary protocols for a mass spectrometry assay employing Aβ and IAPP can be found in the Examples, the results of which are provided in Table 3. The protocol can readily be modified to adjust the sensitivity of the data, e.g., by adjusting the amount of protein and/or compound employed. Thus, e.g., binding might be detected for test compounds noted as not having detectable binding employing less sensitive test protocols.
The test compounds were synthesized and screened by mass spectrometry (“MS”) assays, except for selected compounds which were purchased from a commercial source. The MS assay gives data on the ability of compounds to bind to proteins, in this example, to β-amyloid and IAPP.
In the MS assay for Aβ40, samples were prepared as aqueous solutions (adding 20% ethanol if necessary to solubilize in water), 200 μM of a test compound and 20 μM of solubilized Aβ40, or 400 μM of a test compound and 40 μM of solubilized Aβ40. The pH value of each sample was adjusted to 7.4 (±0.2) by addition of 0.1% aqueous sodium hydroxide. The solutions were then analyzed by electrospray ionization mass spectrometry using a Waters ZQ 4000 mass spectrometer. Samples were introduced by direct infusion at a flow-rate of 25 μL/min within 2 hr. after sample preparation. The source temperature was kept at 70° C. and the cone voltage was 20 V for all the analysis. Data were processed using Masslynx 3.5 software. The MS assay gives data on the ability of compounds to bind to soluble Aβ, whereas the ThT, EM and CD assays give data on inhibition of fibrillogenesis. In Table 3, a blank box means that a value was not determined for that compound in that assay.
The key below describes the codes used in Table 3A to quantify the binding based on the intensity of the absorption.

MS binding IAPP	SMILES
++ (40-74% binding=(++))	CCCC(CO)NCC(O)CS(=O)(=O)O (stereo not drawn)
+++ (75-100% binding=(+++))	COc1ccc(CNCCCCS(=O)(=O)O)cc1OC [LM]

target: T2, Aβ40 and Aβ42 peptides in plasma and brain of TgCRND8 mice (Homo sapiens, UniProt P05067); experiment: Short term treatment in adult transgenic CRND8 mice overexpressing βAPP: Aβ levels in plasma and brain by ELISA; assay type: in vivo, Mouse; details: Brain Homogenate Methylcellulose Group, Day 14; TgCRND8 mice, 250 mg/kg daily oral
T2 construct: ELISA using Human Aβ40 and Aβ42 Fluorometric ELISA kits from Biosource; from tissue; host or cells: plasma and brain homogenate of TgCRND8 transgenic mice (hAPP transgene)
Source text: Transgenic mice, […]8, expressing the human amyloid precursor protein (hAPP) develop a pathology resembling Alzheimer's disease. In particular, high levels of Aβ40 and Aβ 42 have been documented in the plasma and the brain of these animals at 8-9 weeks of age, followed by early accumulation of amyloid plaques similar to the senile plaques observed in AD patients. These animals also display progressive cognitive deficits that parallel the appearance of degenerative changes. See, […], et al., J. Biol. Chem. 276, 21562-70 (2001). The short term therapeutic effect of 19 compounds of the invention was studied. […] The following abbreviations are used to designate these animals from the 3rd and 4th generation backcross in the present protocol: TgCRND8-2.B6C3F1(N3); TgCRND8-2.B6C3F1(N4). Baseline animals (Group 1) consisted of naive TgCRND8-2. B6C3F1(N3) at 11±1 weeks of age. These mice were used to determine the Aβ levels in the plasma and brain of naive transgenic animals at the initiation of treatment. […] At the end of the treatment periods, plasma and perfused brains were collected for quantification of Aβ levels. […] Plasma samples were immediately frozen and stored at -80° C. pending analysis. The brains were removed, frozen, and stored at -80° C. awaiting analysis. […] Samples were spun at 15000 g for 20 minutes and the supernatants were transferred to fresh tubes. […] The tubes were vortexed for 30 seconds and frozen at -80° C. […] Samples were thawed at room temperature, sonicated at 80° C. for 15 minutes and frozen again. This cycle was repeated 3 times to ensure homogeneity and samples were returned to -80° C. pending analysis. Aβ levels were evaluated in plasma and brain samples by ELISA using Human Aβ40 and Aβ42 Fluorometric ELISA kits from Biosource (Cat. […] In short, samples were thawed at room temperature, sonicated for 5 minutes at 80° C. (sonication for brain homogenates; no sonication for plasma samples) and kept on ice. Aβ peptides were captured using 100 μl of the diluted samples to the plate and incubated without shaking at 4° C. overnight. The samples were aspirated and the wells were rinsed 4 times with wash buffer obtained from the Biosource ELISA kit. The anti-Aβ40 or anti-Aβ42 rabbit polyclonal antiserum (specific for the Aβ40 or Aβ42 peptide) was added (100 μl) and the plate was incubated at room temperature for 2 hours with shaking. The wells were aspirated and washed 4 times before adding 100 μl of the alkaline phosphatase labeled anti-rabbit antibody and incubating at room temperature for 2 hours with shaking. The plates were then rinsed 5 times and the fluorescent substrate (100 μl) was added to the plate. The plate was incubated for 35 minutes at room temperature and the plate was read using a titer plate reader at an excitation wavelength of 460 nm and emission at 560 nm Compounds were scored based on their ability to modulate levels of Aβ peptides in the plasma and the cerebral soluble/insoluble levels in the brain. Levels of Aβ observed in the plasma and brain of treated animals were normalized using values from vehicle-treated (water) or methylcellulose-treated control groups and ranked according to the strength of the pharmacological effect. Increases in the levels of Aβ peptides are indicated using “+” symbols, while decreases in the levels of Aβ peptides are indicated using “-” symbols. The strongest effects are recorded as “+++” or “- - -” while the weakest are shown as “+” or “-”.

SMILES	Brain homogenate Aβ40 Change Soluble	Brain homogenate Aβ42 Change Insoluble	Brain homogenate Aβ42 Change Soluble
CC12CC3CC(C)(C1)CC(NCCCS(=O)(=O)O)(C3)C2 [CY]	− (Decreases in the levels of Aβ of 5 to 19% are scored as “−”)	++ (increases of 40 to 69% are scored as “++”)	+++ (increases of 70% or higher are scored as “+ + +”)

same assay, conditions: Brain Homogenate Methylcellulose Group, Day 28; TgCRND8 mice, 250 mg/kg daily oral

SMILES	Brain homogenate Aβ40 Change Insoluble	Brain homogenate Aβ40 Change Soluble	Brain homogenate Aβ42 Change Insoluble	Brain homogenate Aβ42 Change Soluble
CC12CC3CC(C)(C1)CC(NCCCS(=O)(=O)O)(C3)C2 [CY]	+++ (increases of 70% or higher are scored as “+ + +”)	++ (increases of 40 to 69% are scored as “++”)	+ (increases in the levels of Aβ (relative to untreated control) of 20 to 39% are scored as “+”)	+++ (increases of 70% or higher are scored as “+ + +”)

same assay, conditions: Plasma Methylcellulose Group, Day 28; TgCRND8 mice, 250 mg/kg daily oral in 1% methylcellulose, normalized to methylcellulose control

SMILES	Plasma Aβ42 Change
CC12CC3CC(C)(C1)CC(NCCCS(=O)(=O)O)(C3)C2 [CY]	+ (increases in the levels of Aβ (relative to untreated control) of 20 to 39% are scored as “+”)

target: T1, IAPP; experiment: MS (electrospray mass spectrometry) binding assay for IAPP; details: Table 3B; 30 μM Aβ peptide, 150 μM compound (so in the source)

MS binding IAPP	SMILES
++ (40-59% binding=(++))	CC(C)(C)NCC(O)CS(=O)(=O)O (stereo not drawn) [JV, 3-(tert-butylamino)-2-hydroxy-1-propanesulfonic acid]
++ (40-59% binding=(++))	CC(C)CCNCCC(C)S(=O)(=O)O (stereo not drawn) [KH, 4-[(3-methylbutyl)amino]-2-butanesulfonic acid]
+++ (60-100% binding=(+++))	O=S(=O)([O-])CC(O)CNC12CC3CC(CC(C3)C1)C2.[Na+] (stereo not drawn) [KB, 4-(adamantan-1-ylamino)-2-hydroxy-1-propanesulfonic acid]
+++ (60-100% binding=(+++))	CC(CCNCc1ccccc1)S(=O)(=O)[O-].[Na+] (stereo not drawn) [JP, 4-(benzylamino)-2-butanesulfonic acid, sodium salt]
+++ (60-100% binding=(+++))	CC(C)(C)NCCS(=O)(=O)O [KS]
++ (40-59% binding=(++))	N[C@@H](Cc1ccccc1)C(=O)NCCS(=O)(=O)O [KT]
++ (40-59% binding=(++))	O=S(=O)(O)CCCCNC1CCCCC1 [LK, 4-(cyclohexylamino)-1-butanesulfonic acid]
++ (40-59% binding=(++))	N[C@@H](Cc1ccccc1)C(=O)NCCCS(=O)(=O)O [KN]
+++ (60-100% binding=(+++))	O=S(=O)(O)CC(O)CNC1C2CC3CC(C2)CC1C3 (stereo not drawn) [KJ, 3-(2-adamantylamino)-2-hydroxy-1-propanesulfonic acid]
+++ (60-100% binding=(+++))	CCNCCC(C)S(=O)(=O)O (stereo not drawn) [JQ, 4-(ethylamino)-2-butanesulfonic acid, sodium salt]
+++ (60-100% binding=(+++))	O=S(=O)(O)CCCCNC1C2CC3CC(C2)CC1C3 (stereo not drawn) [LN, 4-(2-adamantyl)amino-1-butanesulfonic acid]
+++ (60-100% binding=(+++))	CC(CCNC1CCCCC1)S(=O)(=O)O (stereo not drawn) [KM, 4-(cyclohexylamino)-2-butanesulfonic acid]

same assay, conditions: Table 3D; 40 μM Aβ peptide, 400 μM compound (so in the source)

MS binding IAPP	SMILES
+ (20-39% binding=(+))	Nc1cccc2c1CCN(CCCS(=O)(=O)O)C2 [IH]
− (<20%=(−))	NCCCCC(NCCCS(=O)(=O)O)C(=O)O (stereo not drawn) [HY]
− (<20%=(−))	O=C(O)CNCCCS(=O)(=O)O [HZ]
+++ (75-100% binding=(+++))	NCCCCCS(=O)(=O)O [LP]
+ (20-39% binding=(+))	O=C(NCCCCS(=O)(=O)O)OCc1ccccc1 [KV]
+ (20-39% binding=(+))	O=[N+]([O-])c1cccc2c[n+](CCCS(=O)(=O)[O-])ccc12 [IJ]
+ (20-39% binding=(+))	O=S(=O)(O)CCCN1CCc2ccc(Br)cc2C1 [IN]
+ (20-39% binding=(+))	O=S(=O)(O)CCCN1CCc2c(I)cccc2C1 [IP]
− (<20%=(−))	O=S(=O)(O)CCCn1cc[n+](CCCS(=O)(=O)O)c1 [HS]
+ (20-39% binding=(+))	COC(=O)[C@@H](Cc1ccc(I)cc1)NCCCS(=O)(=O)O [IB]
+ (20-39% binding=(+))	O=[N+]([O-])c1ccc2c(c1)CN(CCCS(=O)(=O)O)CC2 [IL]
− (<20%=(−))	O=S(=O)(O)CCCn1cc[n+](CCCn2ccnc2)c1 [HW]
− (<20%=(−))	C[N+](C)(CCCS(=O)(=O)[O-])CCCS(=O)(=O)O [IF]
+ (20-39% binding=(+))	O=S(=O)(O)CCCN1CCc2c(Br)cccc2C1 [IK]
− (<20%=(−))	O=S(=O)(O)CCCN/C=C\NCCCS(=O)(=O)O [HX]
− (<20%=(−))	Nc1ccc2c(c1)CN(CCCS(=O)(=O)O)CC2 [IM]
− (<20%=(−))	[N-]=[N+]=NCCCS(=O)(=O)O [HN]
− (<20%=(−))	CC(=O)N(C(C)=O)c1cccc2c[n+](CCCS(=O)(=O)[O-])ccc12 [II]
− (<20%=(−))	O=S(=O)([O-])CCC[n+]1ccn(CCCS(=O)(=O)O)c1 [HP]

SMILES	MS binding IAPP
O=C(O)c1ccc2[nH]c3c(c2c1)CCN(CCCCS(=O)(=O)O)C3 [LA]	− (<20%=(−))
O=S(=O)(O)CCCN1CCc2c([nH]c3ccc(Br)cc23)C1 [IR]	+ (20-39% binding=(+))
O=[N+]([O-])c1ccc2[nH]c3c(c2c1)CCN(CCCCS(=O)(=O)O)C3 [KY]	+ (20-39% binding=(+))
O=C(O)c1ccc2[nH]c3c(c2c1)CCN(CCCS(=O)(=O)O)C3 [IU]	− (<20%=(−))
Nc1ccc2[nH]c3c(c2c1)CCN(CCCCS(=O)(=O)O)C3 [KW]	+ (20-39% binding=(+))
O=S(=O)(O)CCCCN1CCc2c([nH]c3ccc(Br)cc23)C1 [KX]	+ (20-39% binding=(+))
O=[N+]([O-])c1ccc2[nH]c3c(c2c1)CCN(CCCS(=O)(=O)O)C3 [IT]	+ (20-39% binding=(+))
